pKi: −log10 of the molar value.
Target: T1, cynomolgus BK1-receptor (Macaca fascicularis, UniProt Q3BCU0)
T1 construct: expressed in transfected cells; host or cells: CHO cells (homogenate)
T1 sequence (Q3BCU0 1-352): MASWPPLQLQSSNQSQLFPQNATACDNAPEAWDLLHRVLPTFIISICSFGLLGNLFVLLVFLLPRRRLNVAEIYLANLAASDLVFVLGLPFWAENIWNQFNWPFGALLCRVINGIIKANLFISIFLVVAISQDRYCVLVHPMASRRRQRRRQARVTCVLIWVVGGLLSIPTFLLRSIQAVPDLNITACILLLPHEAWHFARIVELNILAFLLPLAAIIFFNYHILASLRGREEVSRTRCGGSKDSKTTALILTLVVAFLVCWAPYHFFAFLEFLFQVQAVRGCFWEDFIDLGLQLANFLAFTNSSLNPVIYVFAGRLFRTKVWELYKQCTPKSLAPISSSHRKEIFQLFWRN
Experiment: cynoBK1-receptor binding assay
Conditions: CHO cells expressing cynomolgus BK1-receptor, radioligand kallidine (DesArg10,Leu9)
Outline: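 Radioligand competition on homogenates of CHO cells expressing cynomolgus BK1 receptor (50 to 250 μg protein/assay), incubated 60-180 minutes at ambient temperature with 0.5 to 5.0 nM [3H]kallidine (DesArg10,Leu9) plus increasing test compound. Filtration binding; non-specific defined with 1.0 μM kallidine (DesArg10); Ki from non-linear curve fitting.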

SMILES | pKi | inhibition at 10 µM (at 10 μgmol/L) [%] | % inhibition at 10 μgmol/L (at 10 μgmol/L) [%]
COc1cccc(C(=O)N[C@@]2(C(=O)NCc3ccc(Nc4ccccc4C(F)(F)F)cc3)CCOC2)c1 [(100)] |  | 103 | 
O=C(NC1(C(=O)NCc2ccc(Nc3ccc(Br)cc3C(F)(F)F)cn2)CC1)c1cc(O)nc(O)n1 [(176)] |  | 100 | 
Cn1ccnc1C(=O)NC1(C(=O)NCc2ccc(Nc3ccccc3C(F)(F)F)cc2)CC1 [(18)] |  | 67 | 
COC(=O)c1ccc(Nc2ccc(CNC(=O)C3(NC(=O)c4cncnc4)CC3)nc2)c(C(F)(F)F)c1 [(196)] | < 6.30 | 82 | 
O=C(N[C@@]1(C(=O)NCc2ccc(Nc3ccccc3C(F)(F)F)cc2)CCOC1)c1cccc(O)n1 [(70)] |  | 107 | 
O=C(NC1(C(=O)NCc2ccc(Nc3ccc(F)cc3C(F)(F)F)cn2)CC1)c1cnc(N2CCCCC2)nc1 [(248)] | 6.56 |  | 
O=C(NC1(C(=O)NCc2ccc(Nc3cccc(Cl)c3Cl)cc2)CC1)c1cncnc1 [(1)] |  | 54 | 
O=C(N[C@@]1(C(=O)NCc2ccc(Nc3ccccc3C(F)(F)F)cc2)CCOC1)c1cccc(Cl)n1 [(67)] |  | 63 | 
CN1CCC(C(=O)NC2(C(=O)NCc3ccc(Nc4ccccc4C(F)(F)F)cc3)CC2)CC1 [(22)] |  | 60 | 
CNc1ncc(C(=O)NC2(C(=O)NCc3ncc(Nc4c(F)cccc4C(F)(F)F)cc3F)CC2)cn1 [(133)] |  | 101 | 
O=C(Cc1cncnc1)NC1(C(=O)NCc2ccc(Nc3ccccc3C(F)(F)F)cc2)CC1 [(34)] | < 6.30 | 94 | 
O=C(NC1(C(=O)NCc2ccc(Nc3c(F)cccc3Cl)cn2)CC1)c1cncnc1 [(200)] |  | 92 | 
O=C(NC1(C(=O)NCc2ncc(Nc3ccc(Cl)cc3C(F)(F)F)cc2F)CC1)c1cncnc1 [(165)] |  | 101 | 
Cc1ccc(C(=O)N[C@@]2(C(=O)NCc3ccc(Nc4ccccc4C(F)(F)F)cc3)CCOC2)cn1 [(58)] |  | 109 | 
O=C(NC1(C(=O)NCc2ccc(Nc3ccc(Cl)cc3C(F)(F)F)cn2)CC1)c1ccnc(F)c1 [(355)] | 6.36 |  | 
CN(c1ccc(CNC(=O)C2(NC(=O)c3cncnc3)CC2)cc1)c1ccccc1Cl [(110)] |  | 33 | 
CN(C)CCC(=O)NC1(C(=O)NCc2ccc(Nc3ccccc3C(F)(F)F)cc2)CC1 [(8)] |  | 75 | 
COC1CC(C(=O)N[C@@]2(C(=O)NCc3ccc(Nc4ccccc4C(F)(F)F)cc3)CCOC2)C1 (stereo partly shown) [(75)] |  | 71 | 
O=C(NC1(C(=O)NCc2ccc(Nc3c(F)cc(Br)cc3Cl)cn2)CC1)c1cncnc1 [(325)] | 6.43 |  | 
Nc1cccc(C(=O)N[C@@]2(C(=O)NCc3ccc(Nc4ccccc4C(F)(F)F)cc3)CCOC2)n1 [(72)] | 6.38 | 89 | 
O=C(N[C@@]1(C(=O)NCc2ccc(Nc3ccccc3C(F)(F)F)cc2)CCOC1)c1cncc(O)c1 [(87)] |  | 112 | 
O=C(CC(F)(F)F)N[C@@]1(C(=O)NCc2ncc(Nc3c(F)cccc3C(F)(F)F)cc2Cl)CCOC1 [(261)] | 6.34 |  | 
O=C1CCC(NC(=O)c2cncnc2)(C(=O)NCc2ccc(Nc3ccccc3C(F)(F)F)cn2)C1 (stereo not shown) [(193)] |  | 101 | 
O=C(NC1(C(=O)NCc2ccc(Nc3ccc(F)cc3C(F)(F)F)cn2)CC1)c1ccc(C(F)(F)F)nc1 [(254)] | 6.59 |  | 
O=C(N[C@@]1(C(=O)NCc2ccc(Nc3ccccc3C(F)(F)F)cc2)CCOC1)c1cncnc1 [(155)] |  |  | 101
Cn1ccc(C(=O)NC2(C(=O)NCc3ccc(Nc4ccc(Cl)cc4C(F)(F)F)cn3)CC2)cc1=O [(148)] |  | 96 | 
O=C(N[C@@]1(C(=O)NCc2ccc(Nc3ccccc3C(F)(F)F)cc2)CCOC1)c1ccc(=O)[nH]n1 [(62)] |  | 60 | 

More lines, in order of rising pKi, values ahead:

pKi | inhibition at 10 µM (at 10 μgmol/L) [%] | % inhibition at 10 μgmol/L (at 10 μgmol/L) [%] | SMILES
6.71 | 101 |  | Cc1cc(Br)ccc1Nc1ccc(CNC(=O)C2(NC(=O)c3cncnc3)CC2)nc1 [(53)]
6.76 |  |  | O=C(NC1(C(=O)NCc2ccc(Nc3ccc(F)cc3C(F)(F)F)cn2)CC1)c1cnc(N2CCCC2)nc1 [(250)]
6.80 |  |  | Nc1cncc(C(=O)N[C@@]2(C(=O)NCc3ccc(Nc4ccc(Cl)cc4C(F)(F)F)cn3)CCOC2)c1 [(226)]
6.85 |  |  | Nc1cncc(C(=O)NC2(C(=O)NCc3ccc(Nc4ccccc4C(F)(F)F)cc3)COC2)c1 [(273)]
7.05 | 101 |  | Nc1cncc(C(=O)N[C@@]2(C(=O)NCc3ncc(Nc4c(F)cccc4C(F)(F)F)cc3F)CCOC2)c1 [(154)]
7.05 |  |  | COc1ncc(C(=O)N[C@@]2(C(=O)NCc3ccc(Nc4ccc(Cl)cc4C(F)(F)F)cc3)CCOC2)cn1 [(333)]
7.12 |  |  | CNc1cncc(C(=O)N[C@@]2(C(=O)NCc3ccc(Nc4ccc(F)cc4C(F)(F)F)cc3)CCOC2)c1 [(305)]
7.21 | 110 |  | COc1cncc(C(=O)N[C@@]2(C(=O)NCc3ccc(Nc4ccccc4C(F)(F)F)cc3)CCOC2)c1 [(92)]
7.22 |  |  | Cn1cnc2cc(C(=O)NC3(C(=O)NCc4ccc(Nc5ccc(Cl)cc5C(F)(F)F)cn4)CC3)ccc21 [(264)]
7.23 |  |  | O=C(NC1(C(=O)NCc2ccc(Nc3ccc(Cl)cc3C(F)(F)F)cn2)CC1)c1cncc(Cl)c1 [(352)]
7.35 |  |  | COc1ncc(C(=O)N[C@@]2(C(=O)NCc3ccc(Nc4ccc(F)cc4C(F)(F)F)cc3)CCOC2)cn1 [(300)]
7.36 |  |  | O=C(NC1(C(=O)NCc2ccc(Nc3ccc(Cl)cc3C(F)(F)F)cn2)CC1)c1ccns1 [(357)]
7.37 |  |  | O=C(NC1(C(=O)NCc2ccc(Nc3ccc(Cl)cc3C(F)(F)F)cn2)CC1)c1cnc(O)nc1 [(350)]
7.38 |  |  | CC(C#N)C(=O)NC1(C(=O)NCc2ccc(Nc3ccc(Cl)cc3C(F)(F)F)cn2)CC1 (stereo not shown) [(368)]
7.41 | 94 |  | CC(NC(=O)[C@]1(NC(=O)c2cncnc2)CCOC1)c1ccc(Nc2ccc(F)cc2C(F)(F)F)cn1 (stereo partly shown) [(47)]
7.46 |  |  | CNc1cncc(C(=O)NC2(C(=O)NCc3ncc(Nc4c(F)cccc4C(F)(F)F)cc3F)CC2)c1 [(272)]
7.48 |  |  | CCNc1ncc(C(=O)N[C@@]2(C(=O)NCc3ccc(Nc4ccc(F)cc4C(F)(F)F)cc3)CCOC2)cn1 [(328)]
7.55 |  |  | O=C(NC1(C(=O)NCc2ccc(Nc3ccc(F)cc3C(F)(F)F)cn2)CC1)c1cncc(C(F)(F)F)c1 [(340)]
7.57 |  |  | Nc1cncc(C(=O)N[C@@]2(C(=O)NCc3ncc(Nc4ccccc4C(F)(F)F)cc3Cl)CCOC2)c1 [(229)]
7.62 |  |  | O=C(NC1(C(=O)NCc2ccc(Nc3ccc(Cl)cc3C(F)(F)F)cn2)CC1)c1cn[nH]c1 [(372)]

pKi | inhibition at 10 µM (at 10 μgmol/L) [%] | % inhibition at 10 μgmol/L (at 10 μgmol/L) [%] | SMILES
7.70 | 99 |  | COc1ncc(C(=O)NC2(C(=O)NCc3ccc(Nc4ccc(F)cc4C#N)cc3)CC2)cn1 [(182)]
7.72 |  |  | Nc1cncc(C(=O)N[C@@]2(C(=O)NCc3ncc(Nc4ccccc4C(F)(F)F)cc3F)CCOC2)c1 [(320)]
7.77 | 106 |  | N#Cc1cc(F)ccc1Nc1cnc(CNC(=O)C2(NC(=O)c3cncnc3)CC2)c(F)c1 [(160)]
7.77 |  |  | Nc1cncc(C(=O)N[C@@]2(C(=O)NCc3ncc(Nc4ccc(Cl)cc4C(F)(F)F)cc3F)CCOC2)c1 [(271)]
7.82 |  |  | O=C(NC1(C(=O)NCc2ccc(Nc3ccc(F)cc3C(F)(F)F)cn2)CC1)c1cnc2cc[nH]c2c1 [(255)]
7.89 | 111 |  | O=C(CC(F)(F)F)NC1(C(=O)NCc2ccc(Nc3ccc(F)cc3C(F)(F)F)cc2)CC1 [(30)]
7.92 |  |  | Nc1cncc(C(=O)NC2(C(=O)NCc3ccc(Nc4ccc(Cl)cc4C(F)(F)F)cn3)CC2)c1 [(217)]
7.96 |  |  | O=C(N[C@@]1(C(=O)NCc2ccc(Nc3ccc(F)cc3C(F)(F)F)cc2)CCOC1)c1cncnc1 [(287)]
8.00 |  |  | Cc1ncc(C(=O)N[C@@]2(C(=O)NCc3ncc(Nc4ccc(F)cc4C(F)(F)F)cc3C)CCOC2)cn1 [(387)]
8.03 |  |  | N#Cc1ncc(C(=O)NC2(C(=O)NCc3ccc(Nc4ccc(Cl)cc4C(F)(F)F)cn3)CC2)cn1 [(385)]
8.20 | 113 |  | CC(NC(=O)C1(NC(=O)c2cncc(N)c2)CC1)c1ncc(Nc2c(F)cccc2C(F)(F)F)cc1F (stereo not shown) [(122)]
8.21 |  |  | COc1ncc(C(=O)N[C@@]2(C(=O)NCc3ncc(Nc4ccc(F)cc4C(F)(F)F)cc3Cl)CCOC2)cn1 [(230)]
8.26 |  |  | Cc1ncc(C(=O)NC2(C(=O)NCc3ncc(Nc4ccccc4C(F)(F)F)cc3C)CC2)cn1 [(374)]
8.33 | 101 |  | Cc1ncc(C(=O)NC2(C(=O)NCc3ncc(Nc4c(F)cccc4C(F)(F)F)cc3F)CC2)cn1 [(134)]
8.38 |  |  | Nc1cncc(C(=O)N[C@@]2(C(=O)NCc3ccc(Nc4ccc(F)cc4C(F)(F)F)cc3F)CCOC2)c1 [(231)]
8.48 | 108 |  | O=C(NC1(C(=O)NCc2ccc(Nc3ccc(Cl)cc3C(F)(F)F)cn2)CC1)c1cncnc1 [(55)]
8.72 | 110 |  | O=C(NC1(C(=O)NCc2ccc(Nc3ccc(F)cc3C(F)(F)F)cc2)CC1)c1cncnc1 [(33)]
8.80 | 106 |  | CC(NC(=O)C1(NC(=O)c2cncnc2)CC1)c1ccc(Nc2ccc(Br)cc2C(F)(F)F)cn1 (stereo not shown) [(180)]
8.89 |  |  | Cc1ncc(C(=O)NC2(C(=O)NCc3ccc(Nc4ccc(F)cc4C(F)(F)F)cc3F)CC2)cn1 [(283)]
9.15 |  |  | Cc1ncc(C(=O)NC2(C(=O)NCc3ncc(Nc4ccc(F)cc4C(F)(F)F)cc3F)CC2)cn1 [(298)]

Source: patent publication US20130131075A1, “NEW COMPOUNDS” (Boehringer Ingelheim International GmbH, priority 2009, published 2013)
